Values of other authors, collected in Sander's compilation of Henry's law constants (doi:10.1016/s0045-6535(00)00505-1).

Assay: Henry solubility constant Hcp at 298.15 K (mol/(m3 Pa))
Settings: reference: Staudinger and Roberts (2001); cited value

Compared with `ClCC(Cl)(Cl)Cl` [1,1,1,2-tetrachloroethane], `ClC(Cl)(Cl)Cl` [tetrachloromethane] is lower in “Henry solubility constant Hcp” value: 0.024 for the first, 0.00034 for the second.

Compared with `CC(Cl)(Cl)Cl` [1,1,1-trichloroethane], `FC(F)(Cl)Cl` [dichlorodifluoromethane] is lower in “Henry solubility constant Hcp” value: 0.00059 for the first, 3.1e-05 for the second.

First: ClCC(Cl)Cl [1,1,2-trichloroethane]
Second: CC(Cl)CCl (centres undefined) [1,2-dichloropropane]
The “Henry solubility constant Hcp” value of the first is higher: 0.011 for the first, 0.0034 for the second.

Going from `C=C(Cl)Cl` [1,1-dichloroethene] to `ClC=C(Cl)Cl` [trichloroethene], the “Henry solubility constant Hcp” value rises from 0.00034 to 0.001.

First: ClCC(Cl)CCl [1,2,3-trichloropropane]
Second: ClCCl [dichloromethane]
The “Henry solubility constant Hcp” value of the first is higher: 0.036 for the first, 0.0036 for the second.

Going from `Cc1ccccc1C` [1,2-dimethylbenzene] to `Cc1ccccc1` [methylbenzene], the “Henry solubility constant Hcp” value falls from 0.002 to 0.0015.

First: Cc1cccc(C)c1 [1,3-dimethylbenzene]
Second: Cc1ccc(C)cc1 [1,4-dimethylbenzene]
The “Henry solubility constant Hcp” value of the first is higher: 0.0014 for the first, 0.0013 for the second.

Going from `CCCCO[N+](=O)[O-]` [1-butyl nitrate] to `CCCC(C)O[N+](=O)[O-]` (centres undefined) [2-pentyl nitrate], the “Henry solubility constant Hcp” value falls from 0.0088 to 0.0037.

Compared with `CC(=O)c1ccccc1` [1-phenylethanone], `O=Cc1ccccc1` [benzaldehyde] is lower in “Henry solubility constant Hcp” value: 1.1 for the first, 0.38 for the second.

Compared with `CC(=O)C(=O)O` [2-oxopropanoic acid], `CC(=O)OO` [ethanoic peroxyacid] is lower in “Henry solubility constant Hcp” value: 3000 for the first, 7.3 for the second.

First: CC(C)c1ccccc1 [(2-propyl)-benzene]
Second: Clc1ccccc1 [chlorobenzene]
The “Henry solubility constant Hcp” value of the first is lower: 0.0012 for the first, 0.0027 for the second.

First: c1ccccc1 [benzene]
Second: CCc1ccccc1 [ethylbenzene]
The “Henry solubility constant Hcp” value of the first is higher: 0.0017 for the first, 0.0013 for the second.

Going from `ClC(Cl)Br` [bromodichloromethane] to `ClC(Br)Br` [dibromochloromethane], the “Henry solubility constant Hcp” value rises from 0.004 to 0.0086.

Compared with `CBr` [bromomethane], `CI` [iodomethane] is higher in “Henry solubility constant Hcp” value: 0.0017 for the first, 0.002 for the second.

Going from `CCCl` [chloroethane] to `CCCCC(=O)O` [pentanoic acid], the “Henry solubility constant Hcp” value rises from 0.00084 to 23.

First: C=CCl [chloroethene]
Second: ClC(Cl)=C(Cl)Cl [tetrachloroethene]
The “Henry solubility constant Hcp” value of the first is lower: 0.00039 for the first, 0.00059 for the second.

Going from `CSC` [dimethyl sulfide] to `CC(C)=O` [propanone], the “Henry solubility constant Hcp” value rises from 0.0053 to 0.28.

Going from `CC#N` [ethanenitrile] to `CS` [methanethiol], the “Henry solubility constant Hcp” value falls from 0.51 to 0.0028.

Compared with `OCOO` [hydroxymethyl hydroperoxide], `COO` [methyl hydroperoxide] is lower in “Henry solubility constant Hcp” value: 16000 for the first, 3.1 for the second.

In the case of `BrC(Br)Br` [tribromomethane], the “Henry solubility constant Hcp” value is listed as 0.017.
